Assay results taken from PMC10403534, “XCP1 cleaves Pathogenesis-related protein 1 into CAPE9 for systemic immunity in Arabidopsis” (Nature Communications, 2023).

Target: T1, XCP1-His (Arabidopsis thaliana, UniProt O65493)
T1 construct: C-terminal 6xHis tag kept; from Arabidopsis cDNA; transiently expressed in Nicotiana benthamiana leaves with P19, Ni-NTA purified
Experiment: inhibition of Ac-CNYD-AMC cleavage, […] h preincubation, […] h incubation
Type: biochemical
Conditions: 1 ug enzyme, 25 uM Ac-CNYD-AMC; covalent

T1 sequence (O65493 137-355): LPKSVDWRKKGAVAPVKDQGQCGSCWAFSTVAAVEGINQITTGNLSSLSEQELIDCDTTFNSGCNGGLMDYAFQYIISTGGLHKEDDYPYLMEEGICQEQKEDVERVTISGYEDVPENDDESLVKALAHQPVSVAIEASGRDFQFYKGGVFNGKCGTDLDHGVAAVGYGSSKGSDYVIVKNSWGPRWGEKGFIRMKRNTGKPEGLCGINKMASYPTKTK

With `CC(C)C[C@H](NC(=O)[C@H]1O[C@@H]1C(=O)O)C(=O)NCCCCNC(=N)N` [E-64] the “inhibition of Ac-CNYD-AMC cleavage, 1 h preincubation, 10 h incubation” value was “CNYDase activity of purified XCP1-His was enhanced by CaCl2 and inhibited by ZnCl2 and E-64”.
